Measured values published in patent US20200024278A1, “COMPOSITION COMPRISING ANTIBIOTIC COMPOUND AND AN HETEROCYCLIC COMPOUND AND THEIR USE IN PREVENTING OR TREATING BACTERIAL INFECTIONS” (MUTABILIS, priority 2016, published 2020).
Where two headings read alike, the source gives them in different places.

Key:
Assay in all cases: MIC, broth microdilution (CLSI), substance alone or ATB combined with compound at 4 or 8 μg/mL
KPN BAA-1898 = type: cell-based, K. pneumoniae; conditions: KPN BAA-1898; for MIC: Klebsiella pneumoniae, BAA1898
Summary of the method: (§1)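 Each strain received 5·10^5 CFU/mL of log-phase cells in ca-MHB over DMSO-spotted compound or compound-antibiotic combinations. After 16-20 h at 35° C, growth was scored visually.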

KPN 6299 = type: cell-based, K. pneumoniae; conditions: for MIC: Klebsiella pneumoniae
Summary of the method: as §1

KPN UFR42 = type: cell-based, K. pneumoniae; conditions: for MIC: Klebsiella pneumoniae
Summary of the method: as §1

ECL P99 = type: cell-based, E. cloacae; conditions: ECL P99; for MIC: Enterobacter cloacae
Summary of the method: as §1

SPN 49619 = type: cell-based, S. pneumoniae; conditions: SPN 49619
Summary of the method: as §1

PAE 105250 = type: cell-based, P. aeruginosa; conditions: PAE 105250
Summary of the method: as §1

[1] = antibiotic alone, read-out: MIC ATB alone

CO/N=C(\C(=O)N[C@@H]1C(=O)N2C(C(=O)O)=C(COC(N)=O)CS[C@H]12)c1ccco1 [FUR, Cefuroxime, reference compound]
MIC ATB combined with Example 1 @8 μg/ml (KPN BAA-1898; with Example 1 @8 μg/ml): 2 µg/mL | MIC ATB combined with Example 1 @8 μg/ml (KPN BAA-1898; with Example 1 at 8 μg/ml): 2 µg/mL | MIC ATB combined with Example 7 @8 μgml (KPN BAA-1898; with Example 7 at 8 μg/ml): 8 µg/mL | MIC ATB combined with Example 9 @4 μg/ml (KPN BAA-1898; with Example 9 @4 μg/ml): <0.031 µg/mL | MIC ATB combined with Example 9 @4 μg/ml (KPN BAA-1898; with Example 9 at 4 μg/ml): <0.031 µg/mL | MIC ATB combined with Example 11 @8 μg/ml (KPN BAA-1898; with Example 11 at 8 μg/ml): <0.031 µg/mL | MIC ATB combined with Example 12 @8 μg/ml (KPN BAA-1898; with Example 12 at 8 μg/ml): <0.031 µg/mL | MIC ATB combined with Example 13 @8 μg/ml (KPN BAA-1898; with Example 13 at 8 μg/ml): 8 µg/mL | MIC ATB combined with Example 14 @8 μg/ml (KPN BAA-1898; with Example 14 at 8 μg/ml): <0.031 µg/mL | MIC ATB combined with Example 15 @4 μgml (KPN BAA-1898; with Example 15 at 4 μg/ml): <0.031 µg/mL | MIC ATB combined with Example 16 @4 μg/ml (KPN BAA-1898; with Example 16 at 4 μg/ml): <0.031 µg/mL | MIC (KPN BAA-1898; [1]): > 512 µg/mL | MIC (KPN BAA-1898; substance alone, read-out: MIC): > 512 µg/mL | MIC (KPN 6299; [1]): > 512 µg/mL | MIC (KPN 6299; substance alone, read-out: MIC): > 512 µg/mL | MIC ATB combined with Example 1 @8 μg/ml (KPN 6299; with Example 1 @8 μg/ml): 8 µg/mL | MIC ATB combined with Example 1 @8 μg/ml (KPN 6299; with Example 1 at 8 μg/ml): 8 µg/mL | MIC ATB combined with Example 7 @8 μgml (KPN 6299; with Example 7 at 8 μg/ml): 2 µg/mL | MIC ATB combined with Example 9 @4 μg/ml (KPN 6299; with Example 9 @4 μg/ml): <0.031 µg/mL | MIC ATB combined with Example 9 @4 μg/ml (KPN 6299; with Example 9 at 4 μg/ml): <0.031 µg/mL | MIC ATB combined with Example 11 @8 μg/ml (KPN 6299; with Example 11 at 8 μg/ml): <0.031 µg/mL | MIC ATB combined with Example 12 @8 μg/ml (KPN 6299; with Example 12 at 8 μg/ml): <0.031 µg/mL | MIC ATB combined with Example 13 @8 μg/ml (KPN 6299; with Example 13 at 8 μg/ml): 2 µg/mL | MIC ATB combined with Example 14 @8 μg/ml (KPN 6299; with Example 14 at 8 μg/ml): <0.031 µg/mL | MIC ATB combined with Example 15 @4 μgml (KPN 6299; with Example 15 at 4 μg/ml): <0.031 µg/mL | MIC ATB combined with Example 16 @4 μg/ml (KPN 6299; with Example 16 at 4 μg/ml): <0.031 µg/mL | MIC ATB combined with Example 1 @8 μg/ml (KPN UFR42; KPN UFR42, with Example 1 @8 μg/ml): >32 µg/mL | MIC ATB combined with Example 1 @8 μg/ml (KPN UFR42; KPN UFR42, with Example 1 at 8 μg/ml): >32 µg/mL | MIC ATB combined with Example 7 @8 μgml (KPN UFR42; KPN UFR42, with Example 7 at 8 μg/ml): >32 µg/mL | MIC ATB combined with Example 9 @4 μg/ml (KPN UFR42; KPN UFR42, with Example 9 @4 μg/ml): >32 µg/mL | MIC ATB combined with Example 9 @4 μg/ml (KPN UFR42; KPN UFR42, with Example 9 at 4 μg/ml): >32 µg/mL | MIC ATB combined with Example 11 @8 μg/ml (KPN UFR42; KPN UFR42, with Example 11 at 8 μg/ml): <0.031 µg/mL | MIC ATB combined with Example 12 @8 μg/ml (KPN UFR42; KPN UFR42, with Example 12 at 8 μg/ml): <0.031 µg/mL | MIC ATB combined with Example 13 @8 μg/ml (KPN UFR42; KPN UFR42, with Example 13 at 8 μg/ml): >32 µg/mL | MIC ATB combined with Example 14 @8 μg/ml (KPN UFR42; KPN UFR42, with Example 14 at 8 μg/ml): <0.031 µg/mL | MIC ATB combined with Example 15 @4 μgml (KPN UFR42; KPN UFR42, with Example 15 at 4 μg/ml): <0.031 µg/mL | MIC ATB combined with Example 16 @4 μg/ml (KPN UFR42; KPN UFR42, with Example 16 at 4 μg/ml): <0.031 µg/mL | MIC (KPN UFR42): > 256 µg/mL | MIC (KPN UFR42; KPN UFR42, antibiotic alone, read-out: MIC ATB alone): > 32 µg/mL | MIC ATB combined with Example 1 @8 μg/ml (ECL P99; with Example 1 @8 μg/ml): <=0.031 μg/mL | MIC ATB combined with Example 1 @8 μg/ml (ECL P99; with Example 1 at 8 μg/ml): <=0.031 μg/mL | MIC ATB combined with Example 7 @8 μgml (ECL P99; with Example 7 at 8 μg/ml): >32 µg/mL | MIC ATB combined with Example 9 @4 μg/ml (ECL P99; with Example 9 @4 μg/ml): <0.031 µg/mL | MIC ATB combined with Example 9 @4 μg/ml (ECL P99; with Example 9 at 4 μg/ml): <0.031 µg/mL | MIC ATB combined with Example 11 @8 μg/ml (ECL P99; with Example 11 at 8 μg/ml): <0.031 µg/mL | MIC ATB combined with Example 12 @8 μg/ml (ECL P99; with Example 12 at 8 μg/ml): <0.031 µg/mL | MIC ATB combined with Example 13 @8 μg/ml (ECL P99; with Example 13 at 8 μg/ml): 16 µg/mL | MIC ATB combined with Example 14 @8 μg/ml (ECL P99; with Example 14 at 8 μg/ml): <0.031 µg/mL | MIC ATB combined with Example 15 @4 μgml (ECL P99; with Example 15 at 4 μg/ml): <0.031 µg/mL | MIC ATB combined with Example 16 @4 μg/ml (ECL P99; with Example 16 at 4 μg/ml): <0.031 µg/mL | MIC (ECL P99; [1]): > 512 µg/mL | MIC (ECL P99; substance alone, read-out: MIC): > 512 µg/mL | MIC ATB combined with Example 1 @8 μg/ml (SPN 49619; with Example 1 @8 μg/ml): 0.25 µg/mL | MIC ATB combined with Example 1 @8 μg/ml (SPN 49619; with Example 1 at 8 μg/ml): 0.25 µg/mL | MIC ATB combined with Example 7 @8 μgml (SPN 49619; with Example 7 at 8 μg/ml): 0.25 µg/mL | MIC ATB combined with Example 9 @4 μg/ml (SPN 49619; with Example 9 @4 μg/ml): <=0.031 μg/mL | MIC ATB combined with Example 9 @4 μg/ml (SPN 49619; with Example 9 at 4 μg/ml): <=0.031 μg/mL | MIC ATB combined with Example 11 @8 μg/ml (SPN 49619; with Example 11 at 8 μg/ml): 0.063 µg/mL | MIC ATB combined with Example 12 @8 μg/ml (SPN 49619; with Example 12 at 8 μg/ml): <0.031 µg/mL | MIC ATB combined with Example 13 @8 μg/ml (SPN 49619; with Example 13 at 8 μg/ml): 0.25 µg/mL | MIC ATB combined with Example 14 @8 μg/ml (SPN 49619; with Example 14 at 8 μg/ml): <0.031 µg/mL | MIC ATB combined with Example 15 @4 μgml (SPN 49619; with Example 15 at 4 μg/ml): <0.031 µg/mL | MIC ATB combined with Example 16 @4 μg/ml (SPN 49619; with Example 16 at 4 μg/ml): <0.031 µg/mL | MIC (SPN 49619; Streptococcus pneumoniae, antibiotic alone, read-out: MIC ATB alone): 0.25 µg/mL | MIC ATB combined with Example 1 @8 μg/ml (PAE 105250; with Example 1 @8 μg/ml): <0.031 µg/mL | MIC ATB combined with Example 1 @8 μg/ml (PAE 105250; with Example 1 at 8 μg/ml): <0.031 µg/mL | MIC ATB combined with Example 7 @8 μgml (PAE 105250; with Example 7 at 8 μg/ml): >32 µg/mL | MIC ATB combined with Example 9 @4 μg/ml (PAE 105250; with Example 9 @4 μg/ml): >32 µg/mL | MIC ATB combined with Example 9 @4 μg/ml (PAE 105250; with Example 9 at 4 μg/ml): >32 µg/mL
